Test results published in patent EP0900211B1 (PHARMACIA & UPJOHN COMPANY, priority 1996, dated 1997).
Structures can show the parent of a compound that is named as a salt.

Biological target: Stromelysin (Homo sapiens, UniProt P08254)
Assay: MMP inhibition, particle concentration fluorescence assay
Format: biochemical
Conditions: in vitro; fluorescein/biotin substrate; MMP buffer pH 7.5; room temperature
Method: Inhibitory activity is evaluated in one or more of the MMP enzymes (stromelysin, gelatinase, and collagenase) in vitro using particle concentration fluorescence assay. An inhibitor binds to MMP enzymes which prevents the degradation of a substrate by stromelysin, gelatinase, or collagenase. The substrate has attached to it a fluorescein and a biotin moiety. The intact substrate then binds to an avidin-coated particle via the biotin moiety. Once the particle is washed and dried, a fluorescent signal is generated since the fluorescent group is attached to the particle. Without an inhibitor present, the substrate is degraded by MMP enzymes and the fluorescein group is removed, therefore, no fluorescent signal can be detected. Testing compounds are dissolved in DMSO to the desired concentration, then the solutions are diluted to 1:5 with MMP buffer (50 mM Tris-HCl, pH 7.5; 150 mM NaCl; 0.02% NaN3). Serial two-fold dilutions of each compound are prepared. A concentrated, activated enzyme solution is transferred into each plate of the testing compounds, and the mixture is incubated at room temperature for 15 minutes. […] At this point, the substrate mixture is mixed with 0.1% avidin-coated polystyrene particles. After 15 minutes, the fluorescence values are measured following filtration and washing of the beads. Ki values are then calculated.

Stromelysin, sequence (P08254 100-477): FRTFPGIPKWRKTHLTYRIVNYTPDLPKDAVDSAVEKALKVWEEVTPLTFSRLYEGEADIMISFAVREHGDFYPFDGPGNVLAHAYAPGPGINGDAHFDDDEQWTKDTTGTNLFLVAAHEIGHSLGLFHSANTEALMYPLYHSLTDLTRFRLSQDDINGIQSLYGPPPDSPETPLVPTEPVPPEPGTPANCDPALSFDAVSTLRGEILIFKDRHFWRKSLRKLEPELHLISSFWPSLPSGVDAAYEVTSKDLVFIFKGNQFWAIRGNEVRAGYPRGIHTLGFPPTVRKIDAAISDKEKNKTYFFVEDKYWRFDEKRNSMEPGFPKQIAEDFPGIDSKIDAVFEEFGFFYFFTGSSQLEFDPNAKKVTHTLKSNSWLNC

Structure (SMILES) | Ki [nM]
COC(=O)[C@H](Cc1ccc(O[Si](C)(C)C(C)(C)C)cc1)NC(=O)Nc1n[nH]c(=S)s1 [Example 47, N-[[(4,5-Dihydro-5-thioxo-1,3,4-thiadiazol-2-yl)amino]carbonyl]-O-[(1,1-dimethylethyl)dimethylsilyl]-L-tyrosine methyl ester] | 6370
COC(=O)[C@H](CO[Si](C)(C)C(C)(C)C)NC(=O)Nc1n[nH]c(=S)s1 [Example 45, N-[[(4,5-Dihydro-5-thioxo-1,3,4-thiadiazol-2-yl)amino]carbonyl]-O-[(1,1-dimethylethyl)dimethylsilyl]-L-serine methyl ester] | 1530
COC(=O)[C@H](Cc1ccc(N)cc1)NC(=O)Nc1n[nH]c(=S)s1 [Example 59, N-[[(4,5-Dihydro-5-thioxo-1,3,4-thiadiazol-2-yl)amino]carbonyl]-L-(4-aminophenyl)alanine methyl ester] | 2950
CC(C)C[C@H](NC(=O)Nc1n[nH]c(=S)s1)C(=O)NCc1ccccc1 [Example 29, 2-[[[(4,5-Dihydro-5-thioxo-1,3,4-thiadiazol-2-yl)amino]carbonyl]amino]-4-methyl-N-(phenylmethyl)-(S)-pentanamide] | 4420
O=C(Nc1n[nH]c(=S)s1)N[C@@H](Cc1ccccc1)C(=O)N1CCN(C(c2ccccc2)c2ccccc2)CC1 [Example 55, (S)-1-[2-[[[(4,5-Dihydro-5-thioxo-1,3,4-thiadiazol-2-yl)amino]carbonyl]amino]-1-oxo-3-phenylpropyl]-4-(benzhydryl)piperazine] | 4250
COC(=O)[C@H](CSCc1ccc(C)cc1)NC(=O)Nc1n[nH]c(=S)s1 [Example 65, N-[[(4,5-Dihydro-5-thioxo-1,3,4-thiadiazol-2-yl)amino]carbonyl]-S-[(4-methylphenyl)methyl]-L-cysteine methyl ester] | 2550
CNC(=O)[C@H](CO[Si](C)(C)C(C)(C)C)NC(=O)Nc1n[nH]c(=S)s1 [Example 46, 2-[[[(4,5-Dihydro-5-thioxo-1,3,4-thiadiazol-2-yl)amino]carbonyl]amino]-3-[(1,1-dimethylethyl)-dimethylsilyloxy]-N-methyl-(S)-propanamide] | 750
O=C(Nc1n[nH]c(=S)s1)N[C@@H](Cc1ccccc1)C(=O)N1CCNCC1 [Example 56, (S)-1-[2-[[[(4,5-Dihydro-5-thioxo-1,3,4-thiadiazol-2-yl)amino]carbonyl]amino]-1-oxo-3-phenylpropyl]piperazine trifluoroacetate] | 5270
CC(C)C[C@H](NC(=O)Nc1n[nH]c(=S)s1)C(=O)NCCc1ccccc1 [Example 28, 2-[[[(4,5-Dihydro-5-thioxo-1,3,4-thiadiazol-2-yl)amino]-carbonyl]amino]-4-methyl-N-(2-phenylethyl)-(S)-pentanamide] | 3490
CNC(=O)CCNC(=O)[C@H](Cc1ccccc1)NC(=O)Nc1n[nH]c(=S)s1 [Example 43] | 1340
COC(=O)[C@@H](NC(=O)Nc1n[nH]c(=S)s1)[C@@H](C)OCc1ccccc1 [Example 64, N-[[(4,5-Dihydro-5-thioxo-1,3,4-thiadiazol-2-yl)amino]carbonyl]-O-(phenylmethyl)-L-threonine methyl ester] | 9560
COC(=O)[C@@H](NC(=O)Nc1n[nH]c(=S)s1)[C@@H](C)OC(C)(C)C [Example 74] | 1870
COC(=O)[C@H](Cc1ccc(-c2ccccc2)cc1)NC(=O)Nc1n[nH]c(=S)s1 [Example 78, α-[[[(4,5-Dihydro-5-thioxo-1,3,4-thiadiazol-2-yl)amino]carbonyl]amino]-(S)-(1,1'-biphenyl)-4-propanoic acid methyl ester] | 3020
CNC(=O)[C@H](Cc1ccc(-c2ccccc2)cc1)NC(=O)Nc1n[nH]c(=S)s1 [Example 79, α-[[[(4,5-Dihydro-5-thioxo-1,3,4-thiadiazol-2-yl)amino]carbonyl]amino]-N-methyl-(S)-(1,1'-biphenyl)-4-propanamide] | 7390
COC(=O)[C@@H](NC(=O)Nc1n[nH]c(=S)s1)c1ccccc1 [Example 24, (S)-N-[[(4,5-Dihydro-5-thioxo-1,3,4-thiadiazol-2-yl)amino]carbonyl]-2-phenylglycine methyl ester] | 7660

Results, then the compound that gave them:

Ki [nM] | Structure (SMILES)
2050 | COC(=O)[C@H](CSCc1ccc(OC)cc1)NC(=O)Nc1n[nH]c(=S)s1 [Example 68, N-[[(4,5-Dihydro-5-thioxo-1,3,4-thiadiazol-2-yl)amino]carbonyl]-S-[(4-methoxyphenyl)methyl]-L-cysteine methyl ester]
1870 | COC(=O)[C@H](Cc1ccc([N+](=O)[O-])cc1)NC(=O)Nc1n[nH]c(=S)s1 [Example 32, N-[[(4,5-Dihydro-5-thioxo-1,3,4-thiadiazol-2-yl)amino]carbonyl]-L-(4-nitrophenyl)alanine methyl ester]
1270 | O=C(Nc1n[nH]c(=S)s1)N[C@@H](Cc1ccccc1)C(=O)NCc1ccncc1 [Example 17, α-[[[(4,5-Dihydro-5-thioxo-1,3,4-thiadiazol-2-yl)amino]-carbonyl]amino]-N-(4-pyridinylmethyl)-(S)-benzenepropanamide]
1310 | O=C(Nc1n[nH]c(=S)s1)N[C@@H](Cc1ccccc1)C(=O)NCc1ccc([N+](=O)[O-])cc1 [Example 53, α-[[[(4,5-Dihydro-5-thioxo-1,3,4-thiadiazol-2-yl)amino]carbonyl]amino]-N-[(4-nitrophenyl)methyl]-(S)-benzenepropanamide]
1200 | CNC(=O)[C@H](CSCc1ccc(C)cc1)NC(=O)Nc1n[nH]c(=S)s1 [Example 70, 2-[[[(4,5-Dihydro-5-thioxo-1,3,4-thiadiazol-2-yl)amino]-carbonyl]amino]-N-methyl-3-[[(4-methylphenyl)methyl]thio]-(R)-propanamide]
1120 | O=C(Nc1n[nH]c(=S)s1)N[C@@H](Cc1ccccc1)C(=O)NCCCO [Example 41, α-[[[(4,5-Dihydro-5-thioxo-1,3,4-thiadiazol-2-yl)amino]-carbonyl]amino]-N-(3-hydroxypropyl)-(S)-benzenepropanamide]
210 | O=C(Nc1n[nH]c(=S)s1)N[C@@H](Cc1ccc([N+](=O)[O-])cc1)C(=O)NCCc1ccccc1 [Example 34, α-[[[(4,5-Dihydro-5-thioxo-1,3,4-thiadiazol-2-yl)amino]carbonyl]amino]-4-nitro-N-(2-phenylethyl)-(S)-benzenepropanamide]
1050 | CNC(=O)[C@H](CSCc1ccccc1)NC(=O)Nc1n[nH]c(=S)s1 [Example 72, 2-[[[(4,5-Dihydro-5-thioxo-1,3,4-thiadiazol-2-yl)amino]carbonyl]-amino]-N-methyl-3-[(phenylmethyl)thio]-(R)-propanamide]
800 | CNC(=O)C(Cc1ccc(Br)cc1)NC(=O)Nc1n[nH]c(=S)s1 (stereo not drawn) [Example 20, α-[[[(4,5-Dihydro-5-thioxo-1,3,4-thiadiazol-2-yl)amino]carbonyl]-amino]-N-methyl-4-bromobenzene-propanamide]
800 | O=C(Nc1n[nH]c(=S)s1)N[C@@H](Cc1ccccc1)C(=O)NCc1cccc2ccccc12 [Example 58, α-[[[(4,5-Dihydro-5-thioxo-1,3,4-thiadiazol-2-yl)amino]carbonyl]amino)-N-(1-naphthylmethyl)-(S)-benzenepropanamide]
2500 | CNC(=O)[C@H](Cc1c[nH]c2ccccc12)NC(=O)Nc1n[nH]c(=S)s1 [Example 13, α-[[[(4,5-Dihydro-5-thioxo-1,3,4-thiadiazol-2-yl)amino]carbonyl]-amino]-N-methyl-(S)-1H-indole-3-propanamide]
1000 | O=C(Nc1n[nH]c(=S)s1)N[C@@H](Cc1ccccc1)C(=O)NCc1ccc2c(c1)OCO2 [Example 49, α-[[[(4,5-Dihydro-5-thioxo-1,3,4-thiadiazol-2-yl)amino]-carbonyl]amino]-N-(piperonyl)-(S)-benzenepropanamide]
2010 | O=C(Nc1n[nH]c(=S)s1)N[C@@H](Cc1ccccc1)C(=O)NCc1cccnc1 [Example 18, α-[[[(4,5-Dihydro-5-thioxo-1,3,4-thiadiazol-2-yl)amino]carbonyl]-amino]-N-(3-pyridinylmethyl)-(S)-benzenepropanamide]
300 | O=C(Nc1n[nH]c(=S)s1)N[C@@H](Cc1ccccc1)C(=O)NCCc1ccccc1 [Example 6, α-[[[(4,5-Dihydro-5-thioxo-1,3,4-thiadiazol-2-yl)amino]carbonyl]-amino]-N-(2-phenylethyl)-(S)-benzenepropanamide]
2390 | COC(=O)[C@H](COCc1ccccc1)NC(=O)Nc1n[nH]c(=S)s1 [Example 63, N-[[(4,5-Dihydro-5-thioxo-1,3,4-thiadiazol-2-yl)amino]carbonyl]-O-(phenylmethyl)-L-serine methyl ester]
350 | CCCCNC(=O)[C@H](Cc1ccc([N+](=O)[O-])cc1)NC(=O)Nc1n[nH]c(=S)s1 [Example 35, N-Butyl-α-[[[(4,5-dihydro-5-thioxo-1,3,4-thiadiazol-2-yl)amino]carbonyl]amino]-4-nitro-(S)-benzenepropanamide]
1600 | CNC(=O)[C@H](COC(C)(C)C)NC(=O)Nc1n[nH]c(=S)s1 [Example 73, 2-[[[(4,5-Dihydro-5-thioxo-1,3,4-thiadiazol-2-yl)amino]carbonyl]-amino]-3-(1,1-dimethylethoxy)-N-methyl-(S)-propanamide]
2510 | COC(=O)[C@H](CSCc1ccccc1)NC(=O)Nc1n[nH]c(=S)s1 [Example 71, N-[[(4,5-Dihydro-5-thioxo-1,3,4-thiadiazol-2-yl)amino]carbonyl]-S-(phenylmethyl)-L-cysteine methyl ester]
780 | CCOC(=O)CCNC(=O)[C@H](Cc1ccccc1)NC(=O)Nc1n[nH]c(=S)s1 [Example 42, N-[[(4,5-Dihydro-5-thioxo-1,3,4-thiadiazol-2-yl)amino]carbonyl]-L-phenylalanyl-β-alanine ethyl ester]
1020 | O=C(Nc1n[nH]c(=S)s1)N[C@@H](Cc1ccccc1)C(=O)NCCCc1ccccc1 [Example 51, α-[[[(4,5-Dihydro-5-thioxo-1,3,4-thiadiazol-2-yl)amino]carbonyl]amino]-N-(3-phenylpropyl)-(S)-benzenepropanamide]
